Tested on: learning and memory process of mouse (memory and learning impediment induced by scopolamine)
Experiment: Step-down platform electrical-shock avoidance test of learning and memory (RT, EN) in scopolamine-treated mice
Type: in vivo
Settings: for Memory Results EN / Learning Results EN / Memory Results RT / Learning Results RT: scopolamine 1 mg/kg; for Memory Results EN / Memory Results RT: memory test 24 hrs later; for Learning Results EN / Learning Results RT: training trial
Procedure: The pharmacological tests of memory-enhancing peptide in this invention have been performed as following: the animals have been divided into three groups: drug administration group, control group and model group, with each group administrated with memory-enhancing peptide, saline and scopolamine respectively. In the test, the groups except control group were injected with scopolamine after the administration of medicine about 50 min., 10 min. later, the training began. First, the animals will be put into reaction box for 3 min. before each trails to familiarize them with the environment. Then, the reaction box are charged with 36V alternating current. When the animal subjects to electrical shock, it will jump up to the central platform to avoid harmful stimulation as a normal response. Most of animals may be return to the copper curdles twice or even more times, but they will jump back to the platform swiftly as the results of electrical shock. Each test trail will be performed for 5 min. and two following indices will be used to represent the learning results: (I) the number of total error (EN) during the whole training period; (2) the reaction time (RT) for the first returning to the copper curdle in the trail. The trails will repeat again 24 hrs later as memory test.

Compound	Memory Results EN (Huperzine A 100 μg/kg)	Learning Results EN (Huperzine A 100 μg/kg, number of total errors)	Effect on memory and learning impediment induced by scopolamine, compared with model group (0.5 μg and 1 μg/kg, longer incubation period and lesser error numbers, P<0.01 vs model group)	Effect on scopolamine-induced memory and learning impediment compared with Huperzine A (0.5 μg/kg and 1 μg/kg versus Huperzine A 100 μg/kg)	Memory Results EN (drug dosage 0.25 μg/kg)	Memory Results RT (drug dosage 0.25 μg/kg) [s]	Learning Results EN (drug dosage 0.25 μg/kg)	Learning Results RT (drug dosage 0.25 μg/kg) [s]	Memory Results EN (drug dosage 0.5 μg/kg)	Memory Results RT (drug dosage 0.5 μg/kg) [s]	Learning Results EN (drug dosage 0.5 μg/kg)	Learning Results RT (drug dosage 0.5 μg/kg) [s]	Memory Results EN (drug dosage 1 μg/kg)	Memory Results RT (drug dosage 1 μg/kg) [s]	Learning Results EN (drug dosage 1 μg/kg)	Learning Results RT (drug dosage 1 μg/kg) [s]	Overall effect on memory and learning impediment induced by scopolamine (results of Table 1) (summary statement, no dose given)
C/C=C1\[C@H]2C=C(C)C[C@]1(N)c1ccc(=O)[nH]c1C2 [Huperzine A, reference compound]	0.9	1.3															
PyroGlu—Asn—Cys(S—Bu^t)—Pro—Arg [MEP-531]			obviously improve the memory and learning impediment induced by scopolamine	better effects than Huperzine A	0.9	197.6	0.3	78.8	0.5	245.5	0.2	241.6	0.3	282.8	0.3	267.6	remarkably ameliorate the memory and learning impediment induced by scopolamine

Source: patent US20040116656A1, “Memory-enhancing peptides and the use thereof” (priority 2000, published 2004)
